Reference: patent publication US20240226066A1, “CARDIOPROTECTION BY AUTOPHAGY INDUCTION AND METABOLIC REPROGRAMMING” (UNIVERSITE PARIS-SACLAY, priority 2021, published 2024)

Legend:
H9C2 cells = assay: Mitochondrial morphology and abundance by transmission electron microscopy; assay type: cell-based, rat; conditions: compared to DMSO; for mitochondrial number, size and morphology by transmission electron microscopy: 1 μM
Description: The cells were treated with a vehicle (0.01% DMSO), 1 μM digoxin, 1 μM SG6163F, 10 μM SG6163F, fixed with glutaraldehyde and analyzed by transmission electron microscopy. The cells treated with digoxin and with 10 μM SG6163F have many shorter round mitochondria compared with the control which has long thin mitochondria (FIG. 7B, FIG. 7D versus FIG. 7A).
Transmission electron microscopy. For ultrastructural analysis, the cells were fixed in 1.6% glutaraldehyde in a 0.1 M phosphate buffer, rinsed in a 0.1 M cacodylate buffer, and post-fixed for 1 h in 1% osmium tetroxide and 1% potassium ferrocyanide in a 0.1 M cacodylate buffer to improve the coloration of the membranes. The cells were rinsed in distilled water, dehydrated in alcohols and finally embedded in epoxy resin. Contrasting ultrafine sections (70 nm) were analyzed under a JEOL 1400 transmission electron microscope with a Morada Olympus CCD camera.
(§1) Due to the importance of mitochondria and reactive oxygen species (ROS) levels in the fate of cardiomyocyte cells, the hypothesis that the compounds could impact the mitochondrial network was explored. Following treatment of the RNVCs with the compounds tested, the mitochondrial network was stained with 200 nM of Mitotracker and the cell volume with 4 μM of calcein-AM. Thus, the mitochondrial network and the individual mitochondria were then analyzed using the IMARIS software.

[1] = system: A549 lung cancer cell line; assay: Influence of hits on growth of A549 cancer cells (total LDH after lysis); assay type: cell-based; conditions: 48 h
Description: The cells were cultured for 6 h in the presence or absence of the hits, and then for 42 h. Finally, the cells were lysed with lysis buffer and the amount of LDH was measured to evaluate the total cell growth.
A colorimetric assay was used to measure lactate dehydrogenase (LDH), a cytosolic enzyme which is released during permeabilization of the plasma membrane (Promega G1780). The assay was performed using cell culture supernatants obtained from H9C2 or RNVC (rat neonatal ventricular myocyte) cells and lysis buffer (LB) was used as a positive control for total cell lysis. The LDH release was measured by absorbance reading at 490 nm (Infinite spectrofluorimeter, Tecan).
The effect of the compounds was then evaluated on primary rat neonatal ventricular cardiomyocytes (RNVCs) using the LDH test and propidium iodide staining. […] The absence of proliferative effects of the compounds was also evaluated on the A549 lung cancer cell line for 48 h (FIG. 2C).

DRP-1 = assay: Western blot of DRP-1 phosphorylation (Ser616) in RNVCs; assay type: cell-based, rat
Description: FIG. 6D: Drp-1 and P-Drp-1 and MFN2 protein levels in RNVCs analyzed by western blotting. *, p<0.05, **, p<0.01, ***, p<0.001 with respect to DMSO. The experiments were reproduced 3 times. Representative western blotting images and quantification of three independent experiments are presented as mean±SEM with single-factor ANOVA, and multiple Sidak comparisons.
(§2) The H9C2 cells and RNVCs were detached in LB containing: 50 mM Tris, 150 mM NaCl, 1 mM EDTA, 0.5% deoxycholate, 1% Triton X 100, 0.1% SDS (pH 8.0). The cells were collected and placed on ice for 30 minutes. The cells were then centrifuged at 2000 g for 20 minutes at for 4° C. The supernatant was transferred to a new tube and stored on ice. The protein concentration was determined by BCA assay. The protein samples were diluted with sample buffer (2× Laemmli, Sigma), mixed, and heated for 5 minutes at 95° C. […] The images were recorded with a gel imaging system (Bio Rad). […]
(§3) Due to the importance of mitochondria and reactive oxygen species (ROS) levels in the fate of cardiomyocyte cells, the hypothesis that the compounds could impact the mitochondrial network was explored. […] Thus, the mitochondrial network and the individual mitochondria were then analyzed using the IMARIS software.

RNVCs = assay: Mitochondrial network and cell volume by confocal microscopy (Mitotracker, calcein-AM, IMARIS); assay type: cell-based, rat; conditions: 1 and 10 μM, 6 h
Description: FIG. 6. Effects on mitochondrial dynamics by fluorescence microscopy The RNVCs were treated with 1 μM hits (FIG. 6A) and 10 μM hits (FIG. 6B) for 6 h and the mitochondrial network was stained with 200 nM of Mitotracker. The mitochondrial network and individual mitochondria were then analyzed using a Leica confocal microscope and IMARIS software. Data are presented as mean±SEM with single-factor ANOVA, and multiple Sidak comparisons. *, p<0.05, **, p<0.01, ***, p<0.001 with respect to DMSO.
FIG. 11: following the treatment of the RNVCs with the compounds as indicated, the cell volume was stained with 4 μM of calcein-AM. The cell volume was then analyzed using the IMARIS software.
Confocal microscopy. On day 0, 4×10^5 neonatal cardiomyocytes were plated overnight on laminin-coated 35 mm culture dishes (10 μg/ml). On day 1, the cells were treated with various compounds at 1 or 10 μM for 6 hours. The cells were incubated with Mitotracker Red 580 at 200 nM for 20 minutes at 37° C., then 4 μM of calcein (Calcein AM, Life Technologies, St Aubin, France) for 10 minutes at 37° C. The images were acquired with a Leica confocal microscope (SP5) (Mannheim, Germany). The mitochondrial network and the 3D model of cell volume were reconstructed using the IMARIS software (Bitplane Company, Zurich, Switzerland); therefore the cell volume, mitochondrial number and volume were analyzed.
as §1

MFN2 = assay: Western blot of MFN2 in RNVCs; assay type: cell-based, rat
Description: (§4) FIG. 6C: MFN1 and MFN2 protein levels in RNVCs analyzed by western blotting.
as §2, §3

MFN1 = assay: Western blot of MFN1 in RNVCs; assay type: cell-based, rat
Description: as §4, §2, §3

SMILES	mitochondrial number, size and morphology by transmission electron microscopy (H9C2 cells)	mitochondrial number and size by transmission electron microscopy (H9C2 cells; 10 μM)	effect on A549 cell growth [1]	phosphorylation of DRP-1 at Ser616, (DRP1-P)/(DRP-1 total) ratio (DRP-1)	number of mitochondria (RNVCs)	total mitochondrial volume per cell (RNVCs)	expression of fusion protein MNF2 (MFN2)	expression of fusion protein MFN1 (MFN1)
O=C1NC(c2ccccc2)=N/C1=C\c1cc2ccccc2c2ccccc12 [SG6163F]	did not affect the morphology of the mitochondria	increase in the number of mitochondria and a decrease in their size	no proliferative effect	stimulated fission by phosphorylation of DRP-1	increased	increased	–	–
C[C@H]1O[C@@H](O[C@H]2[C@@H](O)C[C@H](O[C@H]3[C@@H](O)CC(O[C@H]4CC[C@@]5(C)[C@H](CC[C@@H]6[C@@H]5C[C@@H](O)[C@]5(C)[C@@H](C7=CC(=O)OC7)CC[C@]65O)C4)O[C@@H]3C)O[C@@H]2C)C[C@H](O)[C@@H]1O (stereo partly drawn) [digoxin]	increase in the number of mitochondria and a decrease in their size	–	significantly reduced cell growth and induced cell death	stimulated fission by phosphorylation of DRP-1	increased	increased	decreased	decreased
C[C@]12CC[C@H](O)C[C@H]1CC[C@@H]1[C@@H]2CC[C@]2(C)[C@@H](C3=CC(=O)OC3)CC[C@]12O [digitoxigenin]	–	–	significantly reduced cell growth and induced cell death	–	increased	increased	decreased	decreased
